- melting point: 88 to 90 °C
Compound: N#CC(C#N)(CCCSC(F)(F)F)CC(F)(F)C(F)(F)C(F)(F)C(F)(F)C(F)(F)F

Reference: patent US20100215777A1, “Malononitrile Compounds” (BASF SE, priority 2006, published 2010)
